According to ChEMBL document CHEMBL4011641, “Prodrugs of Pyrazolo[3,4-d]pyrimidines: From Library Synthesis to Evaluation as Potential Anticancer Agents in an Orthotopic Glioblastoma Model” (J Med Chem, 2017):
Values after ≈ are worked out from the molar mass of the structure shown.

What was measured:
[1] = Drug uptake in BALB/C mouse adipose tissue at 50 mg/kg, ip via bolus administration measured at 24 hrs post dose by UV/LC-MS; type: ADME, organism-based; settings: in vivo
[2] = molecular target: Tyrosine-protein kinase ABL1 (Homo sapiens, UniProt P00519)
Tyrosine-protein kinase ABL1, sequence (P00519 whole entry): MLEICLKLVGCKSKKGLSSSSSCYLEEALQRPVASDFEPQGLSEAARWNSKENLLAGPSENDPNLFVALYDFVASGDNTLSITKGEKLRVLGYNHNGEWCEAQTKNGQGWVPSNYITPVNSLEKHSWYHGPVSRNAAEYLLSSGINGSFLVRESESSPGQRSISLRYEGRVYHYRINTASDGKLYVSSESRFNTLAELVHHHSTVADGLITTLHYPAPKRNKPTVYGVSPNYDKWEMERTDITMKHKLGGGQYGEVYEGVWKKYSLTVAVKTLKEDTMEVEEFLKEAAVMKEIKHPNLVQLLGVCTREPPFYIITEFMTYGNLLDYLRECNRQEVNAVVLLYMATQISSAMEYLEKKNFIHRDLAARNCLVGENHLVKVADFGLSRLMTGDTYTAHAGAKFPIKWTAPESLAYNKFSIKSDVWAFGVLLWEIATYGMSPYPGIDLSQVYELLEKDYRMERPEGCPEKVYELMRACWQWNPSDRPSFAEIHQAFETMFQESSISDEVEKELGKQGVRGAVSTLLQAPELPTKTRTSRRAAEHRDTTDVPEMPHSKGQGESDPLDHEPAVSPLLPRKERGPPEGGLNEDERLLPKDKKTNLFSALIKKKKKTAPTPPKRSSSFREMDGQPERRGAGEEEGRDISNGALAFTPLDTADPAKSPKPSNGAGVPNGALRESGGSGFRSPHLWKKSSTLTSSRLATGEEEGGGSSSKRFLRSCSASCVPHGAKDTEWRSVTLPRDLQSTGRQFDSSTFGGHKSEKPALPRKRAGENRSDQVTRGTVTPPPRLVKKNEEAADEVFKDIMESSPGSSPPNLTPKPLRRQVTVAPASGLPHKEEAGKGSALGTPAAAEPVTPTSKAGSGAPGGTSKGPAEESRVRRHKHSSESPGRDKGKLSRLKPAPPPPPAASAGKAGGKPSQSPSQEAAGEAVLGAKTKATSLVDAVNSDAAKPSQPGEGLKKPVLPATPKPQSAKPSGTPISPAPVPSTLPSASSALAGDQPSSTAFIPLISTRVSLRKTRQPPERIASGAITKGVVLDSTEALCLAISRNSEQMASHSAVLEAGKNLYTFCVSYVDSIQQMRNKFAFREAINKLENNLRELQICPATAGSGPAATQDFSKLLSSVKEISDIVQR
Description: Inhibition of human wild type full length N-terminal GST/6His-tagged ABL (P118 to S535 residues) expressed in Sf9 cells using abltide as substrate after 5 mins in presence of [gamma-32P]ATP by scintillation counting

Kidney [3] = test: Drug uptake in BALB/C mouse kidney at 50 mg/kg, ip via bolus administration measured at 24 hrs post dose by UV/LC-MS; type: ADME, organism-based; settings: in vivo
[4] = Half life in BALB/C mouse at 50 mg/kg, ip administered via bolus dose using DMSO formulation measured at 1 to 24 hrs post dose by UV/LC-MS analysis; type: ADME, organism-based; settings: in vivo
[5] = Antitumor activity against human U87 cells xenografted in nude immunodeficient CD1 mouse assessed as mean survival time at 50 mg/kg, po administered every other day (reference value: 30 day); type: functional, U-87MG ATCC
[6] = Prodrug activation in human U87 cells assessed as N-(3-bromophenyl)-1-(2-chloro-2-phenylethyl)-6-(2-morpholinoethylthio)-1H-pyrazolo[3,4-d]pyrimidin-4-amine formation at 20 uM up to 25 hrs by UV/LC-MS analysis; type: cell-based; settings: u-87mg atcc
[7] = Prodrug conversion in BALB/C mouse adipose tissue assessed as N-(3-bromophenyl)-1-(2-chloro-2-phenylethyl)-6-(2-morpholinoethylthio)-1H-pyrazolo[3,4-d]pyrimidin-4-amine formation at 50 mg/kg, ip via bolus administration measured at 24 hrs post dose by UV/LC-MS; type: ADME, organism-based; settings: in vivo
[8] = Tmax in BALB/C mouse at 50 mg/kg, ip administered via bolus dose using DMSO formulation measured at 1 to 24 hrs post dose by UV/LC-MS analysis; type: ADME, organism-based; settings: in vivo
[9] = Plasma concentration in BALB/C mouse at 50 mg/kg, ip via bolus administration measured at 24 hrs post dose by UV/LC-MS; type: ADME, organism-based
Brain [10] = test: Prodrug conversion in BALB/C mouse brain assessed as N-(3-bromophenyl)-1-(2-chloro-2-phenylethyl)-6-(2-morpholinoethylthio)-1H-pyrazolo[3,4-d]pyrimidin-4-amine formation at 50 mg/kg, ip via bolus administration measured at 24 hrs post dose by UV/LC-MS; type: ADME, organism-based; settings: in vivo
physchem [11] = settings: PAMPA
Description: Apparent permeability at 500 uM after 5 hrs by Gastro-intestinal-based PAMPA

[12] = Half life in mouse plasma by UV/LC-MS analysis; type: ADME, cell-free
[13] = Drug uptake in cytoplasm of human U87 cells at 20 uM after 5 hrs by UV/LC-MS analysis; type: ADME
cells [14] = settings: Homo sapiens, U-87 MG, 48 h
Description: Cytotoxicity against human U87 cells assessed as reduction in cell viability after 48 hrs by trypan blue assay

Liver [15] = test: Prodrug conversion in BALB/C mouse liver assessed as N-(3-bromophenyl)-1-(2-chloro-2-phenylethyl)-6-(2-morpholinoethylthio)-1H-pyrazolo[3,4-d]pyrimidin-4-amine formation at 50 mg/kg, ip via bolus administration measured at 24 hrs post dose by UV/LC-MS; type: ADME, organism-based; settings: in vivo
[16] = Cmax in BALB/C mouse at 50 mg/kg, ip administered via bolus dose using DMSO formulation measured at 1 to 24 hrs post dose by UV/LC-MS analysis; type: ADME, organism-based; set-up: dose 50 mg/kg, route intraperitoneal; settings: in vivo
cells [17] = settings: Homo sapiens, U-87 MG, 24 h
Description: Cytotoxicity against human U87 cells assessed as reduction in cell viability after 24 hrs by trypan blue assay

[18] = AUC (0 to 24 hrs) in BALB/C mouse at 50 mg/kg, ip administered via bolus dose using DMSO formulation measured at 1 to 24 hrs post dose by UV/LC-MS analysis; type: ADME, organism-based; set-up: dose 50 mg/kg, time < 24 hr, route intraperitoneal; settings: in vivo
Plasma [19] = test: Plasma concentration in BALB/C mouse at 50 mg/kg, ip via bolus administration measured at 24 hrs post dose by UV/LC-MS relative to N-(3-bromophenyl)-1-(2-chloro-2-phenylethyl)-6-(2-morpholinoethylthio)-1H-pyrazolo[3,4-d]pyrimidin-4-amine; type: ADME, organism-based; settings: in vivo
Plasma [20] = test: Prodrug conversion in BALB/C mouse plasma assessed as N-(3-bromophenyl)-1-(2-chloro-2-phenylethyl)-6-(2-morpholinoethylthio)-1H-pyrazolo[3,4-d]pyrimidin-4-amine formation at 50 mg/kg, ip via bolus administration measured at 24 hrs post dose by UV/LC-MS; type: ADME, organism-based; settings: in vivo
[21] = Metabolic stability in human liver microsomes assessed as parent compound remaining at 50 uM after 1 hr in presence of NADPH regenerating system by UV/LC-MS analysis; type: ADME, microsome; settings: read-out: Stability
[22] = AUC (0 to infinity) in BALB/C mouse at 50 mg/kg, ip administered via bolus dose using DMSO formulation measured at 1 to 24 hrs post dose by UV/LC-MS analysis; type: ADME, organism-based; set-up: dose 50 mg/kg, time infinity, route intraperitoneal; settings: in vivo
[23] = Drug uptake in cytoplasm of human U87 cells at 20 uM after 2 hrs by UV/LC-MS analysis; type: ADME
[24] = molecular target: Proto-oncogene tyrosine-protein kinase Src (Homo sapiens, UniProt P12931); test: biochemical
Proto-oncogene tyrosine-protein kinase Src, sequence (P12931 2-536 limits assumed): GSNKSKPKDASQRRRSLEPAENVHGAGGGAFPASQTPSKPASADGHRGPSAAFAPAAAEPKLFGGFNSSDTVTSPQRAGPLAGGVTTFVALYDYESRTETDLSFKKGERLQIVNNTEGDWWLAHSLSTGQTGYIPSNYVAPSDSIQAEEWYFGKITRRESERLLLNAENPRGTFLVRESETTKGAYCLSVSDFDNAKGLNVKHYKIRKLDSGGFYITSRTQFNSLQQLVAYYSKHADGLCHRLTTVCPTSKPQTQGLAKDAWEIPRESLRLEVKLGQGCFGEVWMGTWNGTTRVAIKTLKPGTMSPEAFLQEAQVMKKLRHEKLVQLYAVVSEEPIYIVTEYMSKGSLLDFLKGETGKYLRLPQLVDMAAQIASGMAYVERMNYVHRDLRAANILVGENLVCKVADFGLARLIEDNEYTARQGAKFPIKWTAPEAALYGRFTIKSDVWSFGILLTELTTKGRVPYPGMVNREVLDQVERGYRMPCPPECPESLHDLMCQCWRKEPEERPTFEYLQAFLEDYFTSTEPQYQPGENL
Description: Inhibition of human wild type full length N-terminal GST/6His-tagged SRC (M1 to L536 residues) expressed in baculovirus infected Sf9 cells using src peptide as substrate after 5 mins in presence of [gamma-32P]ATP by scintillation counting method

Liver [25] = test: Drug uptake in BALB/C mouse liver at 50 mg/kg, ip via bolus administration measured at 24 hrs post dose by UV/LC-MS; type: ADME, organism-based; settings: in vivo
cells [26] = settings: Homo sapiens, U-87 MG, 72 h
Description: Cytotoxicity against human U87 cells assessed as reduction in cell viability after 72 hrs by trypan blue assay

Liver carboxylesterase 1 = molecular target: T1, Liver carboxylesterase 1 (Homo sapiens, UniProt P23141); test: Drug metabolism assessed as human CES1-mediated compound hydrolysis at 10 to 100 uM after 1 hr by UV/HPLC-MS analysis; type: ADME
T1 sequence (P23141 whole entry): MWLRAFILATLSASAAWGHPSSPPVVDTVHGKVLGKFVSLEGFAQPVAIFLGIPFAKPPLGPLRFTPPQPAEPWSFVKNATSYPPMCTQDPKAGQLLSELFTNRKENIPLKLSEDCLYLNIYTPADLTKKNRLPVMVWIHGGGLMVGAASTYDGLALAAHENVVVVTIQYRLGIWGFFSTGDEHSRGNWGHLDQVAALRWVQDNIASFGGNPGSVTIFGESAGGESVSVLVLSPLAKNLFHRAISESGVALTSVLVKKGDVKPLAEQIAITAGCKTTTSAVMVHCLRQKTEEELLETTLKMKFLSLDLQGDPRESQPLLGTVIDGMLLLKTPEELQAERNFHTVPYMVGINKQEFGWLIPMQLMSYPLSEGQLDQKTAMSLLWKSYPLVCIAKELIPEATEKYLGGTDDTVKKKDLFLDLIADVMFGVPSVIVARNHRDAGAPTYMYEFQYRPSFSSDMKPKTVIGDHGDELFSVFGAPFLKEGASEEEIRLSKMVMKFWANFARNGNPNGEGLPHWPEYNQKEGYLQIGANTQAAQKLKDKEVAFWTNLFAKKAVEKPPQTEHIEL

[27] = Half life in methanol at 100 uM by UV/LC-MS analysis; type: physicochemical
[28] = Half life in PBS buffer at 100 uM at pH 7.4 by UV/LC-MS analysis; type: physicochemical
Kidney [29] = test: Prodrug conversion in BALB/C mouse kidney assessed as N-(3-bromophenyl)-1-(2-chloro-2-phenylethyl)-6-(2-morpholinoethylthio)-1H-pyrazolo[3,4-d]pyrimidin-4-amine formation at 50 mg/kg, ip via bolus administration measured at 24 hrs post dose by UV/LC-MS; type: ADME, organism-based; settings: in vivo
[30] = Metabolic stability in mouse liver microsomes assessed as unmetabolized compound remaining at 50 uM after 1 hr in presence of NADPH regenerating system by UV/LC-MS analysis; type: ADME, microsome; settings: read-out: Stability
[31] = Plasma clearance in BALB/C mouse at 50 mg/kg, ip administered via bolus dose using DMSO formulation measured at 1 to 24 hrs post dose by UV/LC-MS analysis; type: ADME, organism-based
physchem [32] = settings: aqueous
Description: Aqueous solubility of compound at 1 mg after 24 hrs by UV/LC-MS analysis

physchem [33] = settings: PAMPA; remark: listed apart in the source
Description: Apparent permeability at 500 uM after 5 hrs by Blood-Brain Barrier-based PAMPA

[34] = MRT in BALB/C mouse at 50 mg/kg, ip administered via bolus dose using DMSO formulation measured at 1 to 24 hrs post dose by UV/LC-MS analysis; type: ADME, organism-based; settings: in vivo
Brain [35] = test: Drug uptake in BALB/C mouse brain at 50 mg/kg, ip via bolus administration measured at 24 hrs post dose by UV/LC-MS analysis; type: ADME, organism-based; settings: in vivo

Which Drug uptake [1] does the source give for `CN1CCN(CCOC(=O)N(c2cccc(Br)c2)c2nc(SCCN3CCOCC3)nc3c2cnn3CC(Cl)c2ccccc2)CC1` (stereo unspecified) here?
The Drug uptake was 1.8 nmol/g.

And the Ki [2]?
Its Ki is > 100 µM.

And the Drug uptake (Kidney [3])?
Its Drug uptake is 6.8 nmol/g.

What about the half-life [4] of the same compound?
The half-life was 1430 min.

What about the MST [5] of the same compound?
Its MST is 49 days.

And the Drug metabolism [6]?
Its Drug metabolism is “Metabolite_Detected”.

What about the Drug metabolism [7] of the same compound?
The Drug metabolism was 20.5 nmol/g.

And the Tmax [8]?
Its Tmax is 1 h.

And the concentration at 24 h [9]?
Its concentration at 24 h is 5.4 µM.

And the Drug metabolism (Brain [10])?
The Drug metabolism was 5.2 nmol/g.

And the Papp at 5 h, 500 µM (physchem [11])?
The Papp at 5 h, 500 µM was 2.13 ×10⁻⁶ cm/s.

And the half-life [12]?
Its half-life is 69.6 min.

And the Drug uptake [13]?
Its Drug uptake is “Active”.

What about the IC50 (cells [14]) of the same compound?
The IC50 was 5.2 µM.

What about the Drug metabolism (Liver [15]) of the same compound?
Its Drug metabolism is 3.6 nmol/g.

And the Cmax [16]?
Its Cmax is 8.78 µM.

And the IC50 (cells [17])?
Its IC50 is 7.5 µM.

And the AUC(0-t) at 24 h [18]?
The AUC(0-t) at 24 h was 136 µM·h.

And the “fold change (FC)” value (Plasma [19])?
Its value is 2.

And the Drug metabolism (Plasma [20])?
The Drug metabolism was 3.3 nmol/mL.

What about the remaining at 1 h, 50 µM [21] of the same compound?
The remaining at 1 h, 50 µM was 93.6%.

And the AUC(0-inf) [22]?
The AUC(0-inf) was 265 µM·h.

What about the Drug uptake [23] of the same compound?
The Drug uptake was “Active”.

What about the Ki [24] of the same compound?
The Ki was > 100 µM.

What about the Drug uptake (Liver [25]) of the same compound?
Its Drug uptake is 0.8 nmol/g.

What about the IC50 (cells [26]) of the same compound?
The IC50 was 1800 nM.

What about the Drug metabolism (Liver carboxylesterase 1) of the same compound?
The Drug metabolism was “Metabolite_Notdetected”.

And the half-life at 100 µM [27]?
The half-life at 100 µM was > 2880 min.

And the half-life at 100 µM [28]?
The half-life at 100 µM was > 2880 min.

And the Drug metabolism (Kidney [29])?
Its Drug metabolism is 2.6 nmol/g.

What about the remaining at 1 h, 50 µM [30] of the same compound?
The remaining at 1 h, 50 µM was 93.1%.

And the CL/F [31]?
The CL/F was 0.14 mL/min.

And the solubility at 24 h (physchem [32])?
The solubility at 24 h was 8.7 µg/mL (≈ 11.7 µM).

And the Papp at 5 h, 500 µM (physchem [33])?
The Papp at 5 h, 500 µM was 2.91 ×10⁻⁶ cm/s.

What about the MRT [34] of the same compound?
The MRT was 33.3 h.

What about the Drug uptake (Brain [35]) of the same compound?
Its Drug uptake is 6.4 nmol/g.
